{
  "source": "patent US20230016479A1",
  "about": "“METHOD FOR PREPARING MESENCHYMAL STEM CELLS HAVING IMPROVED VIABILITY THROUGH ANTI-CANCER VIRUS INTRODUCTION” (priority 2019, published 2023)",
  "tested_on": "ViroSTEM (mesenchymal stem cells into which measles virus has been introduced)",
  "test": "Viability of ViroSTEM cold-stored in 30% autologous serum-containing physiological saline treated with aspirin",
  "format": "cell-based, human",
  "description": "While ViroSTEM, which is mesenchymal stem cells into which measles virus has been introduced, was cold-stored in physiological saline containing aspirin and 30% autologous serum for 5 days, it was treated with aspirin at a concentration of 10 μg/ml to 100 μg/ml.\nThe period of time during which ViroSTEM cold-stored in physiological saline containing 50 μg/ml aspirin and 30% autologous serum was maintained as described above increased to 80 hours, indicating the stability of the virus in ViroSTEM cold-stored for 80 hours. After cold storage of ViroSTEM for 80 hours, the stem cells were cultured and then observed under a fluorescence microscope.",
  "data": [
    {"smiles": "CC(=O)Oc1ccccc1C(=O)O", "note": "[aspirin]", "values": [
      {"measurement": "viability at 50 µg/mL", "setting": "Homo sapiens, Mesenchymal stem cells, 72 h, aspirin 50 μg/ml, cold storage 3 days in physiological saline containing 30% autologous serum, without aspirin about 28.6%, read-out: cell viability of measles virus-infected stem cell therapeutic agent", "result": "≥ 88", "unit": "%"},
      {"measurement": "most effective concentration of aspirin", "setting": "tested 10 μg/ml to 100 μg/ml in vehicle containing autologous serum", "result": 50, "unit": "µg/mL"}
    ]}
  ]
}
